Earlier results in publication PMC11419783 (Blood, 2024).

Legend:
[1] = system: KMT2A-r cell lines engineered to express mutant menin (M327I or T349M); conditions: M327I or T349M in endogenous MEN1-coding sequence
[2] = system: Recombinant mutant MEN1 (MEN1^M327I, MEN1^T349M)
[3] = system: KMT2A and NPM1 altered R/R acute leukemia; conditions: recommended phase 2 dose, NPM1-altered disease

Row | Compound | sensitivity of menin-mutant cell lines to antiproliferative effects [1] | binding affinity to mutant MEN1 [2] | complete remission/complete remission with partial recovery of peripheral blood counts [3]
1 | COc1cc(-c2ccc(CN[C@H]3C[C@@H](O)[C@@H](N(C)c4ncnc5sc(CC(F)(F)F)cc45)C3)cc2)nnc1OC [DS-1594] | resistant | – | –
2 | CNc1nc(NC2CCN(Cc3ccc4c(cc(C#N)n4CC45CC(NC=O)(C4)C5)c3C)CC2)c2cc(CC(F)(F)F)sc2n1 [MI3454] | resistant | – | –
3 | CCN(C(=O)c1cc(F)ccc1Oc1cncnc1N1CC2(CCN(C[C@H]3CC[C@H](NS(=O)(=O)CC)CC3)CC2)C1)C(C)C [revumenib] | resistant | significant reduction in binding affinity | –
4 | CNc1nc(NC2CCN(Cc3ccc4c(cc(C#N)n4C[C@H](C)N4CCN(S(C)(=O)=O)CC4)c3C)CC2)c2cc(CC(F)(F)F)sc2n1 [ziftomenib] | – | – | 35%
